Assays:
[1] = target: T1, panel of 374 wild-type kinases (Homo sapiens, UniProt O00311); test: biochemical; conditions: read-out: % Enzyme Activity (relative to DMSO controls), CDC7/DBF4
T1 construct: purchased Reaction Biology Corporation

[2] = target: T2, panel of 374 wild-type kinases (Homo sapiens, UniProt O15075); test: biochemical; conditions: read-out: % Enzyme Activity (relative to DMSO controls), DCAMKL1
T2 construct: purchased Reaction Biology Corporation
T2 sequence (O15075 1-740): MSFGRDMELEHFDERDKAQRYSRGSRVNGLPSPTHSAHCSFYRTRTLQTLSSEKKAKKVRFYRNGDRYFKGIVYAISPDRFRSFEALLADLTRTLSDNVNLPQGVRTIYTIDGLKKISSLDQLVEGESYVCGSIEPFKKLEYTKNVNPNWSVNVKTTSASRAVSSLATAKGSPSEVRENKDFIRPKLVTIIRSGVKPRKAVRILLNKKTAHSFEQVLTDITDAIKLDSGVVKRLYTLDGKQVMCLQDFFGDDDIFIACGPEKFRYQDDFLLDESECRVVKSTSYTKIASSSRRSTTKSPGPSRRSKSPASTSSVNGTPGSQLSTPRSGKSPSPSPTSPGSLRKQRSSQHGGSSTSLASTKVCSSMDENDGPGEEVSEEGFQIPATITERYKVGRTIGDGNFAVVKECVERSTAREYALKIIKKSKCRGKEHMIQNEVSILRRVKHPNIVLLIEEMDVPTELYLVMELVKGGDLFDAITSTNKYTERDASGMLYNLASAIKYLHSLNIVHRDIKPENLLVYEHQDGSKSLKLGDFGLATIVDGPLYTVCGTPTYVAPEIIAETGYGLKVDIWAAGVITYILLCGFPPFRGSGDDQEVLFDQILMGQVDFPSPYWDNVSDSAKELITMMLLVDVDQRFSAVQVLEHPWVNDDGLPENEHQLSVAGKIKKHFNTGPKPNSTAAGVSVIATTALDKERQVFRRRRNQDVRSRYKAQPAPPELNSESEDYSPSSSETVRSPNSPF

[3] = target: T3, panel of 374 wild-type kinases (Homo sapiens, UniProt P10721); test: biochemical; conditions: read-out: % Enzyme Activity (relative to DMSO controls), c-Kit
T3 construct: purchased Reaction Biology Corporation
T3 sequence (P10721 26-976): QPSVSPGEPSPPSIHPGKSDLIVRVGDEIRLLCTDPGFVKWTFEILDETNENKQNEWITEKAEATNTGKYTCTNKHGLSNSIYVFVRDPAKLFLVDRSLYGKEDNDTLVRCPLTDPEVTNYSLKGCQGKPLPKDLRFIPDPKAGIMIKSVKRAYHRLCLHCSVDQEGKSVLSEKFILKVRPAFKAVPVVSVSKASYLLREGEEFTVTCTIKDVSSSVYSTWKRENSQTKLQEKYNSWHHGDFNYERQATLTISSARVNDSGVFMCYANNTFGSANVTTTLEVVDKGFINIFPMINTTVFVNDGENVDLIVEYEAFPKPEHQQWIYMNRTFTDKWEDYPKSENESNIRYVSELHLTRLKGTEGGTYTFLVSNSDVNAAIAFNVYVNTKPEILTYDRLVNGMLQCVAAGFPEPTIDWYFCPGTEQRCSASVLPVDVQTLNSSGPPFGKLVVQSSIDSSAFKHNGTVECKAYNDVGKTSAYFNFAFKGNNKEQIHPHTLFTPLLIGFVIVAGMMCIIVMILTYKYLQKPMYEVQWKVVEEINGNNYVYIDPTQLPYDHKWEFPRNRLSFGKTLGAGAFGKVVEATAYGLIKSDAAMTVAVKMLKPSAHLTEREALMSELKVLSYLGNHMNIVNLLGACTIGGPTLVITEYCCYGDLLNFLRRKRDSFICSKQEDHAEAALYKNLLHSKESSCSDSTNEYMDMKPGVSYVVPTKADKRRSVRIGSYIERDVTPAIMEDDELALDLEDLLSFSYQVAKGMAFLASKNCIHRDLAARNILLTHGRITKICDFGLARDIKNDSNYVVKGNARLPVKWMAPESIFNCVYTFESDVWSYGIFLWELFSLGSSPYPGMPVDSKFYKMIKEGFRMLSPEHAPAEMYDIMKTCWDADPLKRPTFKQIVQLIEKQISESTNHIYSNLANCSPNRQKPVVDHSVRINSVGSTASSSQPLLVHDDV

[4] = target: T4, panel of 374 wild-type kinases (Homo sapiens, UniProt P28482); test: biochemical; conditions: read-out: % Enzyme Activity (relative to DMSO controls), ERK2/MAPK1
T4 construct: purchased Reaction Biology Corporation
T4 sequence (P28482 whole entry): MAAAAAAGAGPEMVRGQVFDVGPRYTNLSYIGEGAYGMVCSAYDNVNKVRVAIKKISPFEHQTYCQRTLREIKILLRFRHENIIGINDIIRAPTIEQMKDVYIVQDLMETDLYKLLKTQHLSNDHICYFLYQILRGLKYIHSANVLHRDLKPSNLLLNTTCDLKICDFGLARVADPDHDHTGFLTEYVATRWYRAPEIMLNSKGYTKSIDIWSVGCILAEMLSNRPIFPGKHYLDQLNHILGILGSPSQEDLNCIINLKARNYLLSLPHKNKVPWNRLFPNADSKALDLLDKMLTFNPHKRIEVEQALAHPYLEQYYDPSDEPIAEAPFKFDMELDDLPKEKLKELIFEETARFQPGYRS

[5] = target: T5, panel of 374 wild-type kinases (Homo sapiens, UniProt P51617); test: biochemical; conditions: read-out: % Enzyme Activity (relative to DMSO controls), IRAK1
T5 construct: purchased Reaction Biology Corporation
T5 sequence (P51617 whole entry): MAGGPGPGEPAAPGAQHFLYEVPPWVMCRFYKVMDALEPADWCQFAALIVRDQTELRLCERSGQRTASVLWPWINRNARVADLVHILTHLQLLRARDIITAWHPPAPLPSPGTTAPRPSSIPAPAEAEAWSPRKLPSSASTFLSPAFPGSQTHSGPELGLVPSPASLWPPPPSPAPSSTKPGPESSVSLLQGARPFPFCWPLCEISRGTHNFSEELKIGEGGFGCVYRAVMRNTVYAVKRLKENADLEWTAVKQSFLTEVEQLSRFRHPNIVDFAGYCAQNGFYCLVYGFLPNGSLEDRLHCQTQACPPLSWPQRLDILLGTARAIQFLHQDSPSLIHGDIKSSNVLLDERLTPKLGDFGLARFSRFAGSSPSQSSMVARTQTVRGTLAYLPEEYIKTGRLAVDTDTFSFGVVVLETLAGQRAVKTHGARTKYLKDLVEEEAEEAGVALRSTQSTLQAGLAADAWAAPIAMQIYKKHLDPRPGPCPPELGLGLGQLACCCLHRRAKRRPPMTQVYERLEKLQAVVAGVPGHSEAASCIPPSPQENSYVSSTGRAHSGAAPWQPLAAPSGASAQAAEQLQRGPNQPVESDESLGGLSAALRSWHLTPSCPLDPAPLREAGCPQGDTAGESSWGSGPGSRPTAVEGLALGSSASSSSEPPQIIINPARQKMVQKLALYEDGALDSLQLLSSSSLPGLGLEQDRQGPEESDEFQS

[6] = target: T6, panel of 374 wild-type kinases (Homo sapiens, UniProt Q8TF76); test: biochemical; conditions: read-out: % Enzyme Activity (relative to DMSO controls), Haspin
T6 construct: purchased Reaction Biology Corporation
T6 sequence (Q8TF76 1-798): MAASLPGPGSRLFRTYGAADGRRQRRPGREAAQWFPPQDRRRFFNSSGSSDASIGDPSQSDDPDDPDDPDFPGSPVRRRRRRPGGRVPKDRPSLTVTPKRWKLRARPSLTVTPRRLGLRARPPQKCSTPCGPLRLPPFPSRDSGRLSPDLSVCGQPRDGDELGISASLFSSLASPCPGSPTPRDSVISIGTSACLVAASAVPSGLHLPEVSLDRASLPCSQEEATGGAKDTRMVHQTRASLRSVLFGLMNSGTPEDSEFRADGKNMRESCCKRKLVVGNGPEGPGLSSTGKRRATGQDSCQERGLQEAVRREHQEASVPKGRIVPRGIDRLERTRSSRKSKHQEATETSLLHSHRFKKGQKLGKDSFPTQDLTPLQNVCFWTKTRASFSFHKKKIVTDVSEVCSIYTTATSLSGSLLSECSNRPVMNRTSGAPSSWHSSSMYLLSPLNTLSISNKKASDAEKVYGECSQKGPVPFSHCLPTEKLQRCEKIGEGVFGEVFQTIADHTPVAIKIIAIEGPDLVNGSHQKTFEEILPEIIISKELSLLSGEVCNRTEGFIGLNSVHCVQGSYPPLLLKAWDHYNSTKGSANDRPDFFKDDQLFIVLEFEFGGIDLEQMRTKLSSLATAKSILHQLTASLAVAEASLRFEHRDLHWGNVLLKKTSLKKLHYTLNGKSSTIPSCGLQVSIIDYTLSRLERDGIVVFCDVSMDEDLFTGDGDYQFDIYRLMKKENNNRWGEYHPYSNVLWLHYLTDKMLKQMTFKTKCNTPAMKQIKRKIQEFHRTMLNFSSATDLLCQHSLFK

[7] = target: T7, panel of 374 wild-type kinases (Homo sapiens, UniProt Q9Y3S1); test: biochemical; conditions: read-out: % Enzyme Activity (relative to DMSO controls), kinase WNK2
T7 construct: purchased Reaction Biology Corporation
T7 sequence (Q9Y3S1 whole entry): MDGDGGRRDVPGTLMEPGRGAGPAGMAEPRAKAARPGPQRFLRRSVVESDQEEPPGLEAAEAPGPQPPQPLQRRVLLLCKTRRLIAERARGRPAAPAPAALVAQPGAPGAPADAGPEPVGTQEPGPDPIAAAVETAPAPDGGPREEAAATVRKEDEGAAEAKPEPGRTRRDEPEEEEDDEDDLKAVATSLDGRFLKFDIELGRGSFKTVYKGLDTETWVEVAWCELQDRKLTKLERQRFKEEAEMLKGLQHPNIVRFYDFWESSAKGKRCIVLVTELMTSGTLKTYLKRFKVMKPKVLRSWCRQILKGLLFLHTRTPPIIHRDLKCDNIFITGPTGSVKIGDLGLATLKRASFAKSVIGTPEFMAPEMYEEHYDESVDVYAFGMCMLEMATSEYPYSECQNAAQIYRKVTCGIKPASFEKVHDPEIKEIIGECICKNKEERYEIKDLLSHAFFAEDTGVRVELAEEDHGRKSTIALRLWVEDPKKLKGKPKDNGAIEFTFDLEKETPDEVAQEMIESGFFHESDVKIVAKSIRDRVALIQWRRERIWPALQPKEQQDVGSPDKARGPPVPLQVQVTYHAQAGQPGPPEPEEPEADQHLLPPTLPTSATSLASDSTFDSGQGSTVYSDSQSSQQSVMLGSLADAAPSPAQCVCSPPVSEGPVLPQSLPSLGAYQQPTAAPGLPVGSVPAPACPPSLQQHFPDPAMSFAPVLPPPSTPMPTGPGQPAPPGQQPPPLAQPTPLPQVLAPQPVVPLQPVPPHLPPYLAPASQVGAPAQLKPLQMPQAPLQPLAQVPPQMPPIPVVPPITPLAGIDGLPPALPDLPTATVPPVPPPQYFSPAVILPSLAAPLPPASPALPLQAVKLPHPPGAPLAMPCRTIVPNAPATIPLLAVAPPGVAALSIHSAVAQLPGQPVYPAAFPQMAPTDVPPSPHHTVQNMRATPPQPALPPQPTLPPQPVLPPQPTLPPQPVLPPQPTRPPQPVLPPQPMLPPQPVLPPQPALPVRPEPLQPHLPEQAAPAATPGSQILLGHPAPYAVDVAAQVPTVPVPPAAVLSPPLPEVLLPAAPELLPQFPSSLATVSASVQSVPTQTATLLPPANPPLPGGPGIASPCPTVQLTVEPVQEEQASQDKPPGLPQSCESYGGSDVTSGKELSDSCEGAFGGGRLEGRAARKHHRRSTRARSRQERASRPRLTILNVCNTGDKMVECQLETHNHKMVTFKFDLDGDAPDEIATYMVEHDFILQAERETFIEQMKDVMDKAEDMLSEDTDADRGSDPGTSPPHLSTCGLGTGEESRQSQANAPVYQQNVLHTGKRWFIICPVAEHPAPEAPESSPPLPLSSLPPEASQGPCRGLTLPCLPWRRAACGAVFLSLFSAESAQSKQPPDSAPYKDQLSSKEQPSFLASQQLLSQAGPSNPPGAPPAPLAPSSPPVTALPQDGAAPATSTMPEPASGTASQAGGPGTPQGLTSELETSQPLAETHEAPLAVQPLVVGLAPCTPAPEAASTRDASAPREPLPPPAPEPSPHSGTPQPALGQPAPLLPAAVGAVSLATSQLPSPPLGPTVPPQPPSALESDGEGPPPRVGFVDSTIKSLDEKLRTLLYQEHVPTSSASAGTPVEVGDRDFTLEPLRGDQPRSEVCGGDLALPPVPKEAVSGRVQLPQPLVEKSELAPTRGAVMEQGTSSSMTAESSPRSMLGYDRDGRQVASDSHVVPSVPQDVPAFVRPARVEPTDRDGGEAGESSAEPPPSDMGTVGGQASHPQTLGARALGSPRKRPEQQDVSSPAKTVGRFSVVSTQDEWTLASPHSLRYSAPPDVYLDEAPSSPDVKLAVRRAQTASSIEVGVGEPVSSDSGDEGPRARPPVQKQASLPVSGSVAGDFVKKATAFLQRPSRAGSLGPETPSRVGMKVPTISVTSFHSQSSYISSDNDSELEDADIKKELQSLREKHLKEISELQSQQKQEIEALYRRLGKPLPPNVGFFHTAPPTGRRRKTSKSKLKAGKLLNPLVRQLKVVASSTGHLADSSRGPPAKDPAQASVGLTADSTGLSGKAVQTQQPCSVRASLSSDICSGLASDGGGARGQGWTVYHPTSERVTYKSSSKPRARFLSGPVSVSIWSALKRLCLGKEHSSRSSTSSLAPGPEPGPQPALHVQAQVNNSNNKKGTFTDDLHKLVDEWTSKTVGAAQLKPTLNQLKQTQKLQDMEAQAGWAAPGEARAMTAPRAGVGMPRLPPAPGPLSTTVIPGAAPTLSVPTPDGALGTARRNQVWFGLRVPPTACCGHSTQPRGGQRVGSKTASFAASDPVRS

CYP1A2 = target: T8, CYP1A2 (Homo sapiens, UniProt P05177); test: P450 cocktail inhibition assay, CYP1A2; assay type: in vitro ADME; conditions: at 10 μM
T8 sequence (P05177 1-516): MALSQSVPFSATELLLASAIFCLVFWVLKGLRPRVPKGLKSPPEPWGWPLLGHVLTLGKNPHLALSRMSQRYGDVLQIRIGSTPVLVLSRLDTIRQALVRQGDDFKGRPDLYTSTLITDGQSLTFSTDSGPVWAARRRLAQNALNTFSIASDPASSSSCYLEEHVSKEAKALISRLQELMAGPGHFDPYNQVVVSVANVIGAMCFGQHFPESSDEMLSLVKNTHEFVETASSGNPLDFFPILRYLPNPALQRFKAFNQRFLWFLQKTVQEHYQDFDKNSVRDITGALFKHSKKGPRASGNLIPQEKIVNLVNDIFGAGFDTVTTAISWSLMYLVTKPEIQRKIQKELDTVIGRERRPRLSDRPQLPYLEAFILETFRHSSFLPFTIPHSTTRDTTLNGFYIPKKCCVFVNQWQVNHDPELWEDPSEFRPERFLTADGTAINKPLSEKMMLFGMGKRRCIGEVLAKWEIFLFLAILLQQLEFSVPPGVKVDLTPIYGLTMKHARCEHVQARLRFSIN
Experimental: (§1) P450s inhibition for four major isoforms are evaluated using a cocktail inhibition assay where the metabolism of specific marker substrate (CYP1A2 phenaceten […] to acetaminophen); CYP2C9, tolbutamide hydroxylation to hydrocytolbutamide; CYP2D6, bufuralol hydroxylation to […]; and CYP3A4, midazolam hydroxylation to 1′-Hydroxymidazolam) in the presence or absence of 10 TM probe compound is evaluated. The concentration of each marker substrate is approximately its Km. […] Specific inhibitors for each isoform are included in each run to validate the system.

CYP2D6 = CYP2D6 (Homo sapiens, UniProt P10635); test: P450 cocktail inhibition assay, CYP2D6; assay type: in vitro ADME; conditions: at 10 μM
Experimental: as §1

T1 sequence (O00311 whole entry): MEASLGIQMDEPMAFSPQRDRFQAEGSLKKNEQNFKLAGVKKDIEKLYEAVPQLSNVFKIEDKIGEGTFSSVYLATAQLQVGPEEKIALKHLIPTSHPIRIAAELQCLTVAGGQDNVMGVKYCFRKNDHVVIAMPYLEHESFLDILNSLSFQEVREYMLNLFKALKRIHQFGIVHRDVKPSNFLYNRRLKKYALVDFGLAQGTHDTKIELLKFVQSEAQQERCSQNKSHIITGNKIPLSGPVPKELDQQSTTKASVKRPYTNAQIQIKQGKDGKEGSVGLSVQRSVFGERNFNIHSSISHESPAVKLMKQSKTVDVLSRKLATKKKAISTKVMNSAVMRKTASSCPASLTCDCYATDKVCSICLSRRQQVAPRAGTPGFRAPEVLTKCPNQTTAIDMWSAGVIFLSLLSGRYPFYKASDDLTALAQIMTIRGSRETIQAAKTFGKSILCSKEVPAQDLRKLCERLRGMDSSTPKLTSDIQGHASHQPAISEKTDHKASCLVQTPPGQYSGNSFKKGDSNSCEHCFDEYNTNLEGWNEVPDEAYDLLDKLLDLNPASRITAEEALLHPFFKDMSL

Structure (SMILES)	remaining activity at 5 µM [1]	remaining activity at 5 µM [2]	remaining activity at 5 µM [3]	remaining activity at 5 µM [4]	remaining activity at 5 µM [5]	remaining activity at 5 µM [6]	remaining activity at 5 µM [7]	CYP-450 % inh. 1A2 (CYP1A2)	CYP-450 % inh. 2D6 (CYP2D6)	remaining activity at 10 µM ([1]; 10 uM)	remaining activity at 10 µM ([2]; 10 uM)	remaining activity at 10 µM ([3]; 10 uM)	remaining activity at 10 µM ([4]; 10 uM)	remaining activity at 10 µM ([5]; 10 uM)	remaining activity at 10 µM ([6]; 10 uM)	remaining activity at 10 µM ([7]; 10 uM)
O=C(Nc1cnn(-c2csc(C(=O)NC3COC3)c2)c1)Nc1ccccc1Cl [Compound 17, 4-(4-(3-(2-chlorophenyl)ureido)-1H-pyrazol-1-yl)-N-(oxetan-3-yl)thiophene-2-carboxamide]	111%	99.2%	89.2%	110%	112%	112%	96.3%	6%	−15%							
Cc1sc(C(=O)NC2COC2)cc1-n1cc(NC(=O)Nc2c(F)cccc2Cl)cn1 [Compound 27, 4-(4-(3-(2-chloro-6-fluorophenyl)ureido)-1H-pyrazol-1-yl)-5-methyl-N-(oxetan-3-yl)thiophene-2-carboxamide]								22%	1%	107%	67.2%	64.4%	90.8%	79.9%	92.4%	91.1%
O=C(Nc1cnn(-c2csc(C(=O)NC3COC3)c2)c1)Nc1c(F)cccc1Cl [Compound 25, 4-(4-(3-(2-chloro-6-fluorophenyl)ureido)-1H-pyrazol-1-yl)-N-(oxetan-3-yl)thiophene-2-carboxamide]	84.3%	84.2%	94%	85.9%	107%	111%	91.9%	36%	31%							
